# Target: Sodium-dependent dopamine transporter (Rattus norvegicus, UniProt P23977)
# Test: Displacement of [3H]WIN-35428 from dopamine transporter of rat caudate putamen tissue
# Assay type: tissue-based
# Chain of Sodium-dependent dopamine transporter (P23977 whole entry): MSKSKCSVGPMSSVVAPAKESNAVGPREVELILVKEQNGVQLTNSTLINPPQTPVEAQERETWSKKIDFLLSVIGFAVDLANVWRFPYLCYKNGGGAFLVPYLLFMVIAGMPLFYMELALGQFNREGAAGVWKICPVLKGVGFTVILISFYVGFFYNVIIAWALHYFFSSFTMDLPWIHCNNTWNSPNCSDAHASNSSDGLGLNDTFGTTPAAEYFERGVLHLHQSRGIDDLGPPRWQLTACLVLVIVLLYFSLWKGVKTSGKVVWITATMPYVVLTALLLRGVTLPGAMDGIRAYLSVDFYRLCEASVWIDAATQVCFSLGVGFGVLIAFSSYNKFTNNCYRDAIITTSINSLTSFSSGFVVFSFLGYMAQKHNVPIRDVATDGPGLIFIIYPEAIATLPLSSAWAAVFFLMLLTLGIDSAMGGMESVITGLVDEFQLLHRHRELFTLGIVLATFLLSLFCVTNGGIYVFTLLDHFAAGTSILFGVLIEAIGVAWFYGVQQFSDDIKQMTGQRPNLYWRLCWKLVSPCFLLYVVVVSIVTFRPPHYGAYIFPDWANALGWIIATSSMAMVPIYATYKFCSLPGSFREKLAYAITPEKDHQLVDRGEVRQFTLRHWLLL
row,Structure (SMILES),Ki [nM]
1,c1ccc(CC2CC3CCC(C2)N3CCOC(c2ccccc2)c2ccccc2)cc1 (centres undefined),98
2,Clc1ccc(C(OCCN2C3CCC2CC(Cc2ccccc2)C3)c2ccc(Cl)cc2)cc1 (centres undefined),346
3,Cc1ccc(C(OCCN2C3CCC2CC(Cc2ccccc2)C3)c2ccc(C)cc2)cc1 (centres undefined),217
4,Clc1ccc(C(OCCN2C3CCC2CC(Cc2ccccc2)C3)c2ccccc2)cc1 (centres undefined),198
5,Fc1ccc(C(OCCN2CCC(CCCc3ccccc3)CC2)c2ccc(F)cc2)cc1,595
6,c1ccc(CN2C3CCC2CC(CCOC(c2ccccc2)c2ccccc2)C3)cc1 (centres undefined),99
7,Fc1ccc(C(OCCC2CCN(CCCc3ccccc3)CC2)c2ccc(F)cc2)cc1,25
8,Fc1ccc(C(OCCN2C3CCC2CC(Cc2ccccc2)C3)c2ccc(F)cc2)cc1 (centres undefined),144
9,COc1ccc(C(OCCN2C3CCC2CC(Cc2ccccc2)C3)c2ccc(OC)cc2)cc1 (centres undefined),135
